Measurements published in article PMC4923583, “A Phase I/II Clinical Trial of Belinostat (PXD101) in Combination with Doxorubicin in Patients with Soft Tissue Sarcomas” (Sarcoma, 2016).
“And” between values parts separate entries of the source, which are not always exact repeats. Equal values may be shown once.

What was measured:
[1] = system: patients with STS and other solid tumours; test: Dose escalation: maximum tolerated dose (MTD) and dose limiting toxicities (DLT); format: in vivo; details: highest tested dose level (cohort 4)
Experimental: Belinostat was administered as a 30-minute intravenous infusion every 24 hours on days 1–5 and on day 5 in combination with doxorubicin, in a 3-week schedule, and doxorubicin was given after belinostat. The dose escalation schedule was as follows: belinostat 600 mg/m^2 and 50 mg/m^2 doxorubicin (cohort 1), 600 mg/m^2 and 75 mg/m^2 doxorubicin (cohort 2), 800 mg/m^2 and 75 mg/m^2 doxorubicin (cohort 3), and 1000 mg/m^2 and 75 mg/m^2 doxorubicin (cohort 4).
Patients who achieved clinical benefit from the treatment (objective response or stable disease) could continue belinostat treatment beyond cycle 6. If the maximum cumulative dose of doxorubicin 450 mg/m^2 was reached, the treatment would continue with belinostat as monotherapy. In the phase I part, at least 3 patients were treated at each dose level. If a DLT was found in one of 3 patients, the cohort was expanded to a total of 6 patients.
Adverse events were graded using the NCI common terminology criteria for adverse events (NCI-CTCAE) version 3.0. […]

[2] = system: solid tumours and haematological neoplasms; set-up: method as in PMID 18245542, PMID 18510700; details: ref [10], [11], cited from earlier work
human tumour xenografts = details: cited from earlier work
[3] = Pharmacokinetic analyses, plasma, cycle 1 day 4 and day 5
Experimental: (§1) The following PK parameters were determined: elimination half-life (t 1/2), maximum concentration (C max), time to maximum concentration (t max), area under the curve (AUC0−tlast and AUC∞), elimination rate constant (λz), and volume of distribution (V c and V ss). Blood sampling for belinostat alone was performed on cycle 1 day 4 (before treatment and 0 min, 5 min, 15 min, 30 min, 1 h, 2 h, 2 h 15 min, 2 h 30 min, 3 h, 4 h, 6 h, 8 h, and 24 h after treatment).

[4] = in vivo
Experimental: as §1

soft tissue sarcoma = details: single-agent doxorubicin, ref [6], cited from earlier work

For `O=C(/C=C/c1cccc(S(=O)(=O)Nc2ccccc2)c1)NO` [belinostat], the “MTD of belinostat in combination with doxorubicin” value ([1]; 30-minute IV infusion days 1–5, 3-week schedule, doxorubicin on day 5) is listed as 1000 mg/m^2/d, the “Maximum tolerated dose (MTD), monotherapy” value ([2]; 5 consecutive days repeated in a 3-week schedule) is listed as 1000 mg/m^2/d and the “Duration of prolonged stable disease (SD) in 2 STS patients” value ([2]; belinostat monotherapy, one value per patient) is listed as 7 months and 14 months. The “Toxicity to the host mice” value (human tumour xenografts; mouse, in vivo) was “without apparent toxicity”, the “Growth of human tumour xenografts” value (human tumour xenografts; ref [9]) was “inhibits growth” and the clearance ([3]; 600 mg/m^2 Bel + 50 mg/m^2 doxorubicin, Day 5 (with doxorubicin), N: 1, individual parameter presented) was 1770 mL/min. For the same compound, the t last ([3]; Median (min–max), 600 mg/m^2 Bel + 50 mg/m^2 doxorubicin, Day 4 (Bel alone), N = 3) was 24.5 (22.4–24.6) h, the t last ([3]; Median (min–max), 600 mg/m^2 Bel + 50 mg/m^2 doxorubicin, Day 5 (with doxorubicin), N = 3) was 17.0 (17.0–20.1) h and the t last ([3]; Median (min–max), 600 mg/m^2 Bel + 75 mg/m^2 doxorubicin, Day 4 (Bel alone), N = 7) was 24.0 (8.55–24.5) h. For the same compound, the t last ([3]; Median (min–max), 600 mg/m^2 Bel + 75 mg/m^2 doxorubicin, Day 5 (with doxorubicin), N = 6) was 24.5 (16.2–24.7) h, the t last ([3]; Median (min–max), 800 mg/m^2 Bel + 75 mg/m^2 doxorubicin, Day 4 (Bel alone), N = 8) was 23.7 (8.47–24.6) h and the t last ([3]; Median (min–max), 800 mg/m^2 Bel + 75 mg/m^2 doxorubicin, Day 5 (with doxorubicin), N = 6) was 15.1 (8.50–24.6) h. For the same compound, the t last ([3]; Median (min–max), 1000 mg/m^2 Bel + 75 mg/m^2 doxorubicin, Day 4 (Bel alone), N = 21) was 8.65 (1.05–24.0) h, the t last ([3]; Median (min–max), 1000 mg/m^2 Bel + 75 mg/m^2 doxorubicin, Day 5 (with doxorubicin), N = 19) was 8.72 (8.50–24.7) h and the “Dose proportionality of pharmacokinetics” value ([3]; belinostat 600–1000 mg/m^2) was “dose-proportional pharmacokinetics”. The “Effect of coadministration of doxorubicin on belinostat exposure” value ([3]; day 5 vs day 4) was “no evidence that coadministration of doxorubicin had any effect”, the AUC(0-t) ([3]; human, plasma, intravenous, 600 mg/m^2, AUC0–tlast, 600 mg/m^2 Bel + 50 mg/m^2 doxorubicin, Day 4 (Bel alone), N = 3) was 10900 ng·h/mL and the AUC(0-t) ([3]; human, plasma, intravenous, 600 mg/m^2, AUC0–tlast, 600 mg/m^2 Bel + 75 mg/m^2 doxorubicin, Day 4 (Bel alone), N = 7) was 9670 ng·h/mL. For the same compound, the Cmax ([3]; human, plasma, intravenous, 600 mg/m^2, C max, 600 mg/m^2 Bel + 50 mg/m^2 doxorubicin, Day 4 (Bel alone), N = 3) was 21100 ng/mL, the Cmax ([3]; human, plasma, intravenous, 600 mg/m^2, C max, 600 mg/m^2 Bel + 75 mg/m^2 doxorubicin, Day 4 (Bel alone), N = 7) was 16800 ng/mL and the clearance ([3]; human, plasma, intravenous, 600 mg/m^2, CL, 600 mg/m^2 Bel + 75 mg/m^2 doxorubicin, Day 4 (Bel alone), N: 3) was 2150 mL/min. For the same compound, the Vd ([3]; human, plasma, intravenous, 600 mg/m^2, V ss, 600 mg/m^2 Bel + 75 mg/m^2 doxorubicin, Day 4 (Bel alone), N: 3) was 149 L, the half-life ([3]; human, plasma, intravenous, 600 mg/m^2, t 1/2, 600 mg/m^2 Bel + 75 mg/m^2 doxorubicin, Day 4 (Bel alone), N: 3) was 3.77 h and the Tmax ([3]; human, plasma, intravenous, 600 mg/m^2, t max, Median (min–max), 600 mg/m^2 Bel + 50 mg/m^2 doxorubicin, Day 4 (Bel alone), N = 3) was 0.533 h. The Tmax ([3]; human, plasma, intravenous, 600 mg/m^2, t max, Median (min–max), 600 mg/m^2 Bel + 75 mg/m^2 doxorubicin, Day 4 (Bel alone), N = 7) was 0.567 h, the AUC(0-t) ([3]; human, plasma, intravenous, 800 mg/m^2, AUC0–tlast, 800 mg/m^2 Bel + 75 mg/m^2 doxorubicin, Day 4 (Bel alone), N = 8) was 12200 ng·h/mL and the Cmax ([3]; human, plasma, intravenous, 800 mg/m^2, C max, 800 mg/m^2 Bel + 75 mg/m^2 doxorubicin, Day 4 (Bel alone), N = 8) was 21400 ng/mL. It also gave a clearance ([3]; human, plasma, intravenous, 800 mg/m^2, CL, 800 mg/m^2 Bel + 75 mg/m^2 doxorubicin, Day 4 (Bel alone), N: 4) of 2120 mL/min, a Vd ([3]; human, plasma, intravenous, 800 mg/m^2, V ss, 800 mg/m^2 Bel + 75 mg/m^2 doxorubicin, Day 4 (Bel alone), N: 4) of 107 L and a half-life ([3]; human, plasma, intravenous, 800 mg/m^2, t 1/2, 800 mg/m^2 Bel + 75 mg/m^2 doxorubicin, Day 4 (Bel alone), N: 4) of 1.91 h. It also gave a Tmax ([3]; human, plasma, intravenous, 800 mg/m^2, t max, Median (min–max), 800 mg/m^2 Bel + 75 mg/m^2 doxorubicin, Day 4 (Bel alone), N = 8) of 0.533 h, a half-life ([3]; human, plasma, intravenous, 1000 mg/m2, Geometric mean apparent elimination half-life (t 1/2), belinostat 600, 800 and 1000 mg/m^2, day 4 and day 5, range across groups) of 1.9 to 4.8 h and an AUC(0-t) ([3]; human, plasma, intravenous, 1000 mg/m^2, AUC0–tlast, 1000 mg/m^2 Bel + 75 mg/m^2 doxorubicin, Day 4 (Bel alone), N = 21) of 23100 ng·h/mL. For the same compound, the Cmax ([3]; human, plasma, intravenous, 1000 mg/m^2, C max, 1000 mg/m^2 Bel + 75 mg/m^2 doxorubicin, Day 4 (Bel alone), N = 21) was 41100 ng/mL, the clearance ([3]; human, plasma, intravenous, 1000 mg/m^2, CL, 1000 mg/m^2 Bel + 75 mg/m^2 doxorubicin, Day 4 (Bel alone), N: 18) was 1360 mL/min and the Vd ([3]; human, plasma, intravenous, 1000 mg/m^2, V ss, 1000 mg/m^2 Bel + 75 mg/m^2 doxorubicin, Day 4 (Bel alone), N: 18) was 51 L. The half-life ([3]; human, plasma, intravenous, 1000 mg/m^2, t 1/2, 1000 mg/m^2 Bel + 75 mg/m^2 doxorubicin, Day 4 (Bel alone), N: 18) was 1.48 h, the Tmax ([3]; human, plasma, intravenous, 1000 mg/m^2, t max, Median (min–max), 1000 mg/m^2 Bel + 75 mg/m^2 doxorubicin, Day 4 (Bel alone), N = 21) was 0.617 h and the AUC(0-t) ([3]; human, plasma, intravenous, AUC0–tlast, 600 mg/m^2 Bel + 50 mg/m^2 doxorubicin, Day 5 (with doxorubicin), N = 3) was 10400 ng·h/mL. The AUC(0-t) ([3]; human, plasma, intravenous, AUC0–tlast, 600 mg/m^2 Bel + 75 mg/m^2 doxorubicin, Day 5 (with doxorubicin), N = 6) was 10400 ng·h/mL, the AUC(0-t) ([3]; human, plasma, intravenous, AUC0–tlast, 800 mg/m^2 Bel + 75 mg/m^2 doxorubicin, Day 5 (with doxorubicin), N = 6) was 14600 ng·h/mL and the AUC(0-t) ([3]; human, plasma, intravenous, AUC0–tlast, 1000 mg/m^2 Bel + 75 mg/m^2 doxorubicin, Day 5 (with doxorubicin), N = 19) was 22100 ng·h/mL. The Cmax ([3]; human, plasma, intravenous, C max, 600 mg/m^2 Bel + 50 mg/m^2 doxorubicin, Day 5 (with doxorubicin), N = 3) was 18300 ng/mL, the Cmax ([3]; human, plasma, intravenous, C max, 600 mg/m^2 Bel + 75 mg/m^2 doxorubicin, Day 5 (with doxorubicin), N = 6) was 17400 ng/mL and the Cmax ([3]; human, plasma, intravenous, C max, 800 mg/m^2 Bel + 75 mg/m^2 doxorubicin, Day 5 (with doxorubicin), N = 6) was 26400 ng/mL. It also gave a Cmax ([3]; human, plasma, intravenous, C max, 1000 mg/m^2 Bel + 75 mg/m^2 doxorubicin, Day 5 (with doxorubicin), N = 19) of 37000 ng/mL, a clearance ([3]; human, plasma, intravenous, CL, 600 mg/m^2 Bel + 75 mg/m^2 doxorubicin, Day 5 (with doxorubicin), N: 3) of 1850 mL/min and a clearance ([3]; human, plasma, intravenous, CL, 800 mg/m^2 Bel + 75 mg/m^2 doxorubicin, Day 5 (with doxorubicin), N: 4) of 1520 mL/min. For the same compound, the clearance ([3]; human, plasma, intravenous, CL, 1000 mg/m^2 Bel + 75 mg/m^2 doxorubicin, Day 5 (with doxorubicin), N = 19) was 1420 mL/min, the Vd ([3]; human, plasma, intravenous, V ss, 600 mg/m^2 Bel + 50 mg/m^2 doxorubicin, Day 5 (with doxorubicin), N: 1, individual parameter presented) was 72.8 L and the Vd ([3]; human, plasma, intravenous, V ss, 600 mg/m^2 Bel + 75 mg/m^2 doxorubicin, Day 5 (with doxorubicin), N: 3) was 90.8 L. For the same compound, the Vd ([3]; human, plasma, intravenous, V ss, 800 mg/m^2 Bel + 75 mg/m^2 doxorubicin, Day 5 (with doxorubicin), N: 4) was 58.3 L, the Vd ([3]; human, plasma, intravenous, V ss, 1000 mg/m^2 Bel + 75 mg/m^2 doxorubicin, Day 5 (with doxorubicin), N = 19) was 57.6 L and the half-life ([3]; human, plasma, intravenous, t 1/2, 600 mg/m^2 Bel + 50 mg/m^2 doxorubicin, Day 5 (with doxorubicin), N: 1, individual parameter presented) was 2.53 h. The half-life ([3]; human, plasma, intravenous, t 1/2, 600 mg/m^2 Bel + 75 mg/m^2 doxorubicin, Day 5 (with doxorubicin), N: 3) was 4.83 h, the half-life ([3]; human, plasma, intravenous, t 1/2, 800 mg/m^2 Bel + 75 mg/m^2 doxorubicin, Day 5 (with doxorubicin), N: 4) was 2.14 h and the half-life ([3]; human, plasma, intravenous, t 1/2, 1000 mg/m^2 Bel + 75 mg/m^2 doxorubicin, Day 5 (with doxorubicin), N = 19) was 2.13 h. The Tmax ([3]; human, plasma, intravenous, t max, Median (min–max), 600 mg/m^2 Bel + 50 mg/m^2 doxorubicin, Day 5 (with doxorubicin), N = 3) was 0.567 h, the Tmax ([3]; human, plasma, intravenous, t max, Median (min–max), 600 mg/m^2 Bel + 75 mg/m^2 doxorubicin, Day 5 (with doxorubicin), N = 6) was 0.517 h and the Tmax ([3]; human, plasma, intravenous, t max, Median (min–max), 800 mg/m^2 Bel + 75 mg/m^2 doxorubicin, Day 5 (with doxorubicin), N = 6) was 0.533 h. For the same compound, the Tmax ([3]; human, plasma, intravenous, t max, Median (min–max), 1000 mg/m^2 Bel + 75 mg/m^2 doxorubicin, Day 5 (with doxorubicin), N = 19) was 0.633 h.
For `COc1cccc2c1C(=O)c1c(O)c3c(c(O)c1C2=O)C[C@@](O)(C(=O)CO)C[C@@H]3O[C@H]1C[C@H](N)[C@H](O)[C@H](C)O1` [doxorubicin], the “MTD of doxorubicin in combination with belinostat” value ([1]; day 5, 3-week schedule) is listed as 75 mg/m^2, the “Effect of coadministration of belinostat on doxorubicin exposure” value [4] is listed as “no effect” and the “Neutropenia (all grades)” value (soft tissue sarcoma; G-CSF allowed) is listed as 37%. The Response rate (soft tissue sarcoma) was 14%, the half-life ([3]; human, plasma, intravenous) was 7.6 to 10.8 h and the Tmax ([3]; human, plasma, intravenous, 75 mg/m2, Median t max, doxorubicin 50 or 75 mg/m^2, day 5, range across groups) was 0.24 to 0.5 h.
